# US6017923A, “Carbo-acyclic nucleoside derivatives as antiviral and antineoplastic agents” (Hoechst Marion Roussel, Inc., priority 1996, dated 2000)
# Test system: HeLa cells
# Experiment: Inhibitory effects of compounds on HeLa cell proliferation in vitro (96 h)
# Format: cell-based
# Conditions: Homo sapiens, exponentially growing, concentration at 50% inhibition of cell growth
# Method: INHIBITORY EFFECTS OF COMPOUNDS ON HeLa CELL PROLIFERATION The inhibitory effect of various compounds of formula (1) on HeLa cell proliferation invitro was determined according to the method described by Sunkara et al. [J. Natl. Cancer Instit. 70, 505-509 (1983)]. Exponentially growing HeLa cells were incubated in the presence or absence of various concentrations of test compounds for 96 hours. IC50 values were calculated which represent the test compound concentration at 50% inhibition of cell growth.
row,IC50 [µg/mL],Compound
1,0.25,"Nc1ncnc2c1ncn2CC/C(=C\F)CO [Compound A, (E)-4-(Adenin-9-yl)-2-hydroxymethyl-1-fluorobut-1-ene]"
2,1,"Nc1ncnc2c1ncn2CC/C(=C/F)CO [Compound B, (Z)-4-(Adenin-9-yl)-2-hydroxymethyl-1-fluorobut-1-ene]"
3,0.6,"C=C(CO)CCn1cnc2c(N)ncnc21 [Compound C, 4-(Adenin-9-yl)-2-hydroxymethylbut-1-ene]"
